What is called IC50 is the concentration at which inhibition is half-maximal. For orientation: MIC means the lowest concentration found to suppress growth. What is called melting point is the temperature, or range, at which the solid turns liquid.

The results in this text go back to PMC10237672, “Design and synthesis of novel anti-urease imidazothiazole derivatives with promising antibacterial activity against Helicobacter pylori” (PLOS ONE, 2023).

Values after ≈ are worked out from the molar mass of the structure shown. Counter-ions that a name gives are not always drawn. Like-named read-outs stand apart in the source and are kept apart here.

In one data set the target is T1, Jack bean urease (Canavalia ensiformis, UniProt P07374).
T1 construct: purchased Sigma Aldrich
T1 sequence (P07374 whole entry, looked up): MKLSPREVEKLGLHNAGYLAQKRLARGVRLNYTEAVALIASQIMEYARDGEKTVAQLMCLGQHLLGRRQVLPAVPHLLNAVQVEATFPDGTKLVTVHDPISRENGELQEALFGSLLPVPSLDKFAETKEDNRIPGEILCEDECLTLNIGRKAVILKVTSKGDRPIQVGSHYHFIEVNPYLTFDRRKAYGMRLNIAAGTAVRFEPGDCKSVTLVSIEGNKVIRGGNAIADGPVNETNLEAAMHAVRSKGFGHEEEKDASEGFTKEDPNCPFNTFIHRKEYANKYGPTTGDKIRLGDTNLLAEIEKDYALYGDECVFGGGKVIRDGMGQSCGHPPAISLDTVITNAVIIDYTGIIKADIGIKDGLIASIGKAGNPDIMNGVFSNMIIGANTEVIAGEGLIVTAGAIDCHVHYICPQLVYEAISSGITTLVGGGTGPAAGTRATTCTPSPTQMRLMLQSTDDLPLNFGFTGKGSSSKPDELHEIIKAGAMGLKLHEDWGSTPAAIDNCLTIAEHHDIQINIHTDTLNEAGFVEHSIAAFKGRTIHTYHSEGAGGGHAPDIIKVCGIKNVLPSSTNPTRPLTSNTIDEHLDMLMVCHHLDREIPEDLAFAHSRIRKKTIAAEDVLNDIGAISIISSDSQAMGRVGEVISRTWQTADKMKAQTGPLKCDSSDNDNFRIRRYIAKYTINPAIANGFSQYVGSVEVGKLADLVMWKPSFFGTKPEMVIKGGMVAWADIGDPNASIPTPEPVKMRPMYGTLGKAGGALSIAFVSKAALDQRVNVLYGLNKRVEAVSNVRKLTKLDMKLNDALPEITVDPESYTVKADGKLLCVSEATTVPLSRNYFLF
The data set can be described thus: biochemical. The data set is classed as biochemical. As for the experimental part: Reaction mixture comprising 40 μL of buffer (K2HPO4: 10 mmol/L, urea: 100 mmol/L, […]: 10 mmol/L, EDTA: 1 /L mmol, pH = 8.2) and 5 U/mL enzyme (10 μL) were pre-incubated with 10 μL of synthesized compounds (1 mM) and substrate urea (1 mM) were incubated at room temperature in 96 well plate for half an hour. After the incubation at room temperature, absorbance was taken at specific wavelength (630 nm) employing a microplate reader (Bio-Tek, USA) with R1 and R2 reagents in each well. The reactions were measured in triplicate fashion. To calculate the inhibition percentage following equation was used.
Percentage inhibition = 100 –[tested compound/control compound] × 100.

The subject of data set [1] is H. pylori. Description: MIC against H. pylori, agar dilution method. Format: cell-based, Helicobacter pylori. The note with it: Helicobacter pylori, ATCC43504; H. pylori ATCC 43504, agar dilution; read-out: MIC value against H. pylori ± SEM.
For data set [2], the system named is H. pylori. The data set can be described thus: IC50 against H. pylori, micro broth dilution test. The data set is classed as cell-based, Helicobacter pylori. The note with it: Helicobacter pylori, ATCC43504; H. pylori ATCC 43504, micro broth dilution, 72 h, OD 600 nm; read-out: IC50 value against H. pylori ± SEM.

`CCS(=O)(=O)Oc1cccc(-c2nc3sccn3c2-c2cccc(S(C)(=O)=O)c2)c1` [Compound 2b, 3-(5-(3-(Methylsulfonyl)phenyl)imidazo[2,1-b]thiazol-6-yl)phenyl ethanesulfonate] showed a melting point of 206 to 209 °C. The molecule also displayed an IC50 against Jack bean urease of 4.97 ± 0.11 µM. Also, the MIC in the data set on H. pylori [1] was determined as 800 µM. The IC50 in the data set on H. pylori [2] came out at 255 ± 35 µM.

The molecule `CS(=O)(=O)Oc1cccc(-c2nc3sccn3c2-c2cccc(S(C)(=O)=O)c2)c1` [Compound 2a, 3-(5-(3-(Methylsulfonyl)phenyl)imidazo[2,1-b]thiazol-6-yl)phenyl methanesulfonate] showed a melting point of 159 to 160 °C. This molecule also came in with an IC50 against Jack bean urease of 5.01 ± 0.03 µM. For the same molecule, the MIC with H. pylori [1] amounted to 250 ± 50 µM. Further, the IC50 with H. pylori [2] came out at 118 ± 5 µM.

Turning to `CS(=O)(=O)c1cccc(-c2c(-c3cccc(OS(=O)(=O)c4ccccc4)c3)nc3sccn23)c1` (as salt: benzenesulfonate) [Compound 2e, 3-(5-(3-(Methylsulfonyl)phenyl)imidazo[2,1-b]thiazol-6-yl)phenyl benzenesulfonate], the melting point fell in the range of 193 to 195 °C.

The molecule `CNS(=O)(=O)Oc1cccc(-c2nc3sccn3c2-c2ccccc2)c1` [Compound 1i, 3-(5-Phenylimidazo[2,1-b]thiazol-6-yl)phenyl methylsulfamate] showed a melting point of 161 to 164 °C. The IC50 at Jack bean urease is 5.51 ± 0.17 µM. The MIC in the data set with H. pylori [1] amounted to 800 µM (≈ 308 µg/mL). In addition, the IC50 with H. pylori [2] was 285 ± 92 µM.

In turn, `O=S(=O)(Oc1cccc(-c2nc3sccn3c2-c2ccccc2)c1)c1ccc(F)cc1` (as salt: benzenesulfonate) [Compound 1f, 3-(5-Phenylimidazo[2,1-b]thiazol-6-yl)phenyl 4-fluorobenzenesulfonate] showed a melting point of 109 to 111 °C.

In turn, `CCCS(=O)(=O)Oc1cccc(-c2nc3sccn3c2-c2ccccc2)c1` [Compound 1c, 3-(5-Phenylimidazo[2,1-b]thiazol-6-yl)phenyl propane-1-sulfonate] displayed a melting point of 120 to 123 °C. This molecule yielded an IC50 on Jack bean urease of 4.04 ± 0.09 µM. In the data set with H. pylori [1], the MIC is 800 µM (≈ 319 µg/mL). For the same molecule, the IC50 with H. pylori [2] stood at 364 µM.

As to `O=S(=O)(Oc1cccc(-c2nc3sccn3c2-c2ccccc2)c1)c1ccc(F)cc1` [Compound 1f, 3-(5-Phenylimidazo[2,1-b]thiazol-6-yl)phenyl 4-fluorobenzenesulfonate], the IC50 stood at 5.17 ± 0.01 µM at Jack bean urease and 147 µM in the data set on H. pylori [2]. Besides, the MIC with H. pylori [1] is 200 µM (≈ 90.1 µg/mL).

For `O=S(=O)(Oc1cccc(-c2nc3sccn3c2-c2ccccc2)c1)c1ccccc1` [Compound 1e, 3-(5-Phenylimidazo[2,1-b]thiazol-6-yl)phenyl benzenesulfonate], the figures for the IC50 against Jack bean urease and with H. pylori [2] were 4.3 ± 0.01 µM and 153 ± 33 µM, respectively. Moreover, the MIC with H. pylori [1] was determined as 400 µM.

`NC(N)=S` [thiourea, reference compound]: the IC50 on Jack bean urease (indophenol method, triplicate, thiourea positive control, read-out: Potency against urease IC50 ± SEM) came to 22.3 ± 0.031 µM.

`CS(=O)(=O)c1cccc(-c2c(-c3cccc(OS(=O)(=O)c4ccc(F)cc4)c3)nc3sccn23)c1` (as salt: benzenesulfonate) [Compound 2f, 3-(5-(3-(Methylsulfonyl)phenyl)imidazo[2,1-b]thiazol-6-yl)phenyl 4-fluorobenzenesulfonate] had a melting point of 103 to 105 °C.

`O=S(=O)(Oc1cccc(-c2nc3sccn3c2-c2ccccc2)c1)c1ccccc1` (as salt: benzenesulfonate) [Compound 1e, 3-(5-Phenylimidazo[2,1-b]thiazol-6-yl)phenyl benzenesulfonate] yielded a melting point of 119 to 122 °C.

As for `CS(=O)(=O)c1cccc(-c2c(-c3cccc(OS(=O)(=O)c4ccccc4)c3)nc3sccn23)c1` [Compound 2e, 3-(5-(3-(Methylsulfonyl)phenyl)imidazo[2,1-b]thiazol-6-yl)phenyl benzenesulfonate], the IC50 on Jack bean urease was 5.21 ± 0.03 µM; in the data set on H. pylori [2], 331 ± 21 µM. Moreover, the MIC with H. pylori [1] came to 409 ± 391 µM.
